We go through eleven molecules from patent US20050148786A1, “Diimmonium compound and use thereof” (Nippon Kayaku Kabushiki Kaisha, priority 2003, published 2005).

Molecules are shown by their SMILES.

Data set [1] in a line: Stability test of moisture-and-heat resistance of near-IR absorption filter. Format: physicochemical. The note with it: for b* value, difference: 14-day after minus initial, 60° C. and 95% RH; for b* value, 14-day after / b* value, initial period: acrylic resin filter; for b* value, 14-day after: 14 days at 60° C. and 95% RH; for b* value, initial period: before test. As to the method: (§1) 1.2 part of each compound obtained in each Example was dissolved in 18.8 part of MEK. 80 part of a resin solution obtained by dissolving 25 part of an acrylic resin (Dianal BR-80, manufactured by Mitsubishi Rayon Co., Ltd.) in 75 part of MEK was mixed with the obtained solution to obtain a solution for coating. The solution was applied to form a film with a thickness of 2 to 4 μm on a polyester film and dried at 80° C. to obtain a near-IR absorption filter of the invention.
The obtained near-IR absorption filter was subjected to a stability test of moisture-and-heat resistance for 14 days in a constant temperature and constant humidity apparatus under 60° C. and 95% RH conditions. The filter was subjected to color measurement by a spectrophotometer before and after the test to calculate L*, a*, and b* values. If the + value of b* value is high, it means that the hue is yellowish and if b* value is close to 0, it means that the yellowish degree is low and filter is desirable and therefore, the hue evaluation and stability evaluation were done based on the b* value and its change.

The nature of data set [2]: Stability test of heat resistance of near-IR absorption filter. Format: physicochemical. The note with it: for b* value, initial period / b* value, 14-day after: acrylic resin filter; for b* value, initial period: before test; for b* value, 14-day after / b* value, difference: oven at 80° C.; for b* value, 14-day after: head prints 14-day, text 21 days; for b* value, difference: after minus initial. As to the method:
as §1
[…] After that, the filters were subjected to color measurement by a spectrophotometer to calculate L*, a*, and b* values and their stability was evaluated based on the change in b* values. If the b* is low, that is, the absorption in visible ray region is low, the near-IR absorption filter is preferable.

The nature of data set [3]: thermal decomposition point (weight decrease starting point) by TG-DTA. The note with it: measured by TG-DTA. It counts as physicochemical. The method, then: the melting point: around 170° C.; and the thermal decomposition point (the weight decrease starting point): around 280° C. (measured by TG-DTA)
Data set [4] in a line: Comparative test of molar absorption coefficient measurement. Format: physicochemical. The note with it: in dichloromethane; in M-1·cm-1. An excerpt:
The compounds obtained in the above-mentioned Examples were subjected to the measurement of molar absorption coefficient (ε) in dichloromethane.

Data set [5] in a line: maximum absorption wavelength (λmax) in dichloromethane. It counts as physicochemical. An excerpt:
λmax: 1,102 nm (in dichloromethane);

The nature of data set [6]: Comparative test of solubility measurement. The note with it: room temperature; for solubility in MEK: methyl ethyl ketone.
Experimental: The solubility was measured for the compounds obtained in the above-mentioned Examples at a room temperature in methyl ethyl ketone (MEK) and toluene.

On to `CC(C)CN(CC(C)C)c1ccc([N+](=C2C=CC(=[N+](c3ccc(N(CC(C)C)CC(C)C)cc3)c3ccc(N(CC(C)C)CC(C)C)cc3)C=C2)c2ccc(N(CC(C)C)CC(C)C)cc2)cc1` [Compound No. 2], for which, in data set [1], the “b* value, difference” value is reported as 1.9; the “b* value, 14-day after” value is listed as 4.1; the “b* value, initial period” value is listed as 2.2. For the same molecule, in data set [2], the “b* value, initial period” value is 2.2; the “b* value, 14-day after” value turned out to be 3.7; the “b* value, difference” value is listed as 1.5. In data set [3], the “thermal decomposition point (the weight decrease starting point)” value was “around 282 °C”. Further, the “molar absorption coefficient (ε)” value in data set [4] was 109,000. Moreover, in data set [5], the λmax is reported as 1,104 nm.

`CCN(CC)c1ccc([N+](=C2C=CC(=[N+](c3ccc(N(CC)CC)cc3)c3ccc(N(CC)CC)cc3)C=C2)c2ccc(N(CC)CC)cc2)cc1.O=S(=O)([N-]S(=O)(=O)C(F)(F)F)C(F)(F)F.O=S(=O)([N-]S(=O)(=O)C(F)(F)F)C(F)(F)F` [Compound No. 12]: the “thermal decomposition point (the weight decrease starting point)” value in data set [3] is “around 278 °C”. Besides, the “molar absorption coefficient (ε)” value in data set [4] is listed as 96,000. Moreover, the λmax in data set [5] is recorded as 1,084 nm.

For `N#CCCCCN(CCCCC#N)c1ccc([N+](=C2C=CC(=[N+](c3ccc(N(CCCCC#N)CCCCC#N)cc3)c3ccc(N(CCCCC#N)CCCCC#N)cc3)C=C2)c2ccc(N(CCCCC#N)CCCCC#N)cc2)cc1.O=S(=O)([N-]S(=O)(=O)C(F)(F)F)C(F)(F)F.O=S(=O)([N-]S(=O)(=O)C(F)(F)F)C(F)(F)F` [Compound No. 9], in data set [1], the “b* value, difference” value was 1.9; the “b* value, 14-day after” value was 4.3; the “b* value, initial period” value is 2.4. Further, the “thermal decomposition point (the weight decrease starting point)” value in data set [3] is “around 277 °C”. Also, the “molar absorption coefficient (ε)” value in data set [4] is reported as 109,000. In addition, the λmax in data set [5] is 1,086 nm.

`CCCCN(CCCC)c1ccc([N+](=C2C=CC(=[N+](c3ccc(N(CCCC)CCCC)cc3)c3ccc(N(CCCC)CCCC)cc3)C=C2)c2ccc(N(CCCC)CCCC)cc2)cc1` [Compound No. 1]: in data set [1], the “b* value, difference” value is given as 1.8; the “b* value, 14-day after” value was found to be 5.3; the “b* value, initial period” value is given as 3.5. Further, in data set [2], the “b* value, initial period” value was found to be 3.5; the “b* value, 14-day after” value came to 5.3; the “b* value, difference” value was found to be 1.8. Moreover, the “thermal decomposition point (the weight decrease starting point)” value in data set [3] is “around 280 °C”. Also, the “molar absorption coefficient (ε)” value in data set [4] is recorded as 108,000. Further, in data set [5], the λmax is 1,102 nm.

With `CCCCN(CCCC)c1ccc([N+](=C2C=CC(=[N+](c3ccc(N(CCCC)CCCC)cc3)c3ccc(N(CCCC)CCCC)cc3)C=C2)c2ccc(N(CCCC)CCCC)cc2)cc1.O=S(=O)([O-])c1ccc2c(S(=O)(=O)[O-])cccc2c1O` [Compound No. 152, 1-hydroxy-2,5-naphthalenedisulfonic acid salt of N,N,N′,N′-tetrakis[p-di(n-butyl)aminophenyl]phenylenediimmonium, reference compound], the “molar absorption coefficient (ε)” value in data set [4] is recorded as 24,500.

Regarding `CCCCN(CCCC)c1ccc([N+](=C2C=CC(=[N+](c3ccc(N(CCCC)CCCC)cc3)c3ccc(N(CCCC)CCCC)cc3)C=C2)c2ccc(N(CCCC)CCCC)cc2)cc1.F[P-](F)(F)(F)(F)F.F[P-](F)(F)(F)(F)F` [Compound No. 155, hexafluorophosphate of N,N,N′,N′-tetrakis[p-di(n-butyl)aminophenyl]-p-phenylenediimmonium, reference compound], in data set [1], the “b* value, difference” value was found to be 6.1; the “b* value, 14-day after” value worked out at 9.0; the “b* value, initial period” value turned out to be 2.9.

In the case of `N#CCCCN(CCCC#N)c1ccc([N+](=C2C=CC(=[N+](c3ccc(N(CCCC#N)CCCC#N)cc3)c3ccc(N(CCCC#N)CCCC#N)cc3)C=C2)c2ccc(N(CCCC#N)CCCC#N)cc2)cc1.[F][Sb-]([F])([F])([F])([F])[F].[F][Sb-]([F])([F])([F])([F])[F]` [Compound No. 154, hexafluoroantimonate of N,N,N′,N′-tetrakis[p-di(3-cyanopropyl)aminophenyl]phenylene diimmonium, reference compound], in data set [6], the “solubility in MEK” value is “insoluble” and the solubility in toluene result is “insoluble”.

With `CCCCN(CCCC)c1ccc([N+](=C2C=CC(=[N+](c3ccc(N(CCCC)CCCC)cc3)c3ccc(N(CCCC)CCCC)cc3)C=C2)c2ccc(N(CCCC)CCCC)cc2)cc1.O=S(=O)([O-])c1cccc2c(S(=O)(=O)[O-])cccc12` [Compound No. 151, 1,5-naphthalenedisulfonic acid salt of N,N,N′,N′-tetrakis[p-di(n-butyl)aminophenyl]phenylenediimmonium, reference compound], the “molar absorption coefficient (ε)” value in data set [4] is 82,000.

For `CCCCN(CCCC#N)c1ccc([N+](=C2C=CC(=[N+](c3ccc(N(CCCC)CCCC#N)cc3)c3ccc(N(CCCC)CCCC#N)cc3)C=C2)c2ccc(N(CCCC)CCCC#N)cc2)cc1.O=S(=O)([N-]S(=O)(=O)C(F)(F)F)C(F)(F)F.O=S(=O)([N-]S(=O)(=O)C(F)(F)F)C(F)(F)F` [Compound No. 35], in data set [3], the “thermal decomposition point (the weight decrease starting point)” value is “around 256 °C”. Moreover, the λmax in data set [5] is 1,090 nm.

With `CC(C)CCN(CCC(C)C)c1ccc([N+](=C2C=CC(=[N+](c3ccc(N(CCC(C)C)CCC(C)C)cc3)c3ccc(N(CCC(C)C)CCC(C)C)cc3)C=C2)c2ccc(N(CCC(C)C)CCC(C)C)cc2)cc1.O=S(=O)([N-]S(=O)(=O)C(F)(F)F)C(F)(F)F.O=S(=O)([N-]S(=O)(=O)C(F)(F)F)C(F)(F)F` [Compound No. 4], in data set [1], the “b* value, difference” value stood at 2.1; the “b* value, 14-day after” value is on record as 4.3; the “b* value, initial period” value turned out to be 2.2. Also, in data set [2], the “b* value, initial period” value is 2.4; the “b* value, 14-day after” value was found to be 3.8; the “b* value, difference” value was 1.6. In data set [3], the “thermal decomposition point (the weight decrease starting point)” value is “around 280 °C”. Moreover, in data set [6], the “solubility in MEK” value is recorded as 10% and the solubility in toluene is on record as 0.1%. The “molar absorption coefficient (ε)” value in data set [4] is on record as 110,000. Also, the λmax in data set [5] is recorded as 1,102 nm.

Take `CCCCN(CCCC)c1ccc([N+](=C2C=CC(=[N+](c3ccc(N(CCCC)CCCC)cc3)c3ccc(N(CCCC)CCCC)cc3)C=C2)c2ccc(N(CCCC)CCCC)cc2)cc1.F[B-](F)(F)F.F[B-](F)(F)F` [Compound No. 156, borofluoride salt of N,N,N′,N′-tetrakis[p-di(n-butyl)aminophenyl]phenylene diimmonium, reference compound]: in data set [1], the “b* value, difference” value is listed as 10.8; the “b* value, 14-day after” value is reported as 14.3; the “b* value, initial period” value is reported as 3.5.
